Test results reported in PubChem BioAssay AID179 (DTP/NCI, 2004).
Active and inactive are the calls of the source.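 Rule for the calls: active = compounds giving half or more protection of infected cells from virus-caused growth loss, again on retest; inactive = the rest.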

System: CEM cells HIV-1 protection, formazan growth assay
Assay: NCI AIDS Antiviral Assay
Settings: for IC50: measured here: growth of uninfected CEM cells
Outline: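 Steps: treat uninfected and HIV-1-infected human CEM cells at five drug levels; quantify growth by soluble formazan; retest any compound reaching 50% protection; classify actives from the retest.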

Compound | EC50 | IC50 | outcome
COC1/C=C/OC2(C)Oc3c(C)c(O)c4c(O)c(c(/C=N/N5C(C)CN(Cc6ccc(C)cc6)CC5C)c(O)c4c3C2=O)NC(=O)C(C)=C/C=C/C(C)C(O)C(C)C(O)C(C)C(OC(C)=O)C1C (stereo not given) | > 200 µM | 3.89 µM | –
O=c1[nH]c(O)c(/C=N\C(=S)Nc2cc(Cl)ccc2Cl)c(=O)[nH]1 | > 200 µM | 162 µM | –
CC(C)(O)c1cc2nc3ccccc3nc2n1CCO | > 200 µM | > 200 µM | –
CCCC(NCCCCCCNC(CCC)C(=O)O)C(=O)O (stereo not given) | > 525 µM | > 525 µM | –
NC(=O)CCC(N=c1c2ccccc2n(O)c2ccccc12)C(=O)O (stereo not given) | – | – | inactive
c1ccc2c(c1)Nc1nsnc1N2 | > 27.5 µM | 7.08 µM | –
COc1ccc(C(=O)C(c2ccc(OC)cc2)C2C(=O)Oc3ccccc32)cc1 (stereo not given) | > 34.7 µM | > 34.7 µM | –
Cc1ccc2[nH]c(=O)c(-c3cnc(=O)[nH]n3)c(O)c2c1 | 3.02 µM | 15.1 µM | –
O=C(c1ccccc1)n1[nH]c(=O)n(-c2ccc(Cl)cc2)c1=O | > 200 µM | > 200 µM | –
CN(Cc1c2ccccc2cc2ccccc12)S(=O)(=O)c1ccc(-c2c3nc(c(-c4ccc(S(=O)(=O)N(C)Cc5c6ccccc6cc6ccccc56)cc4)c4ccc([nH]4)c(-c4ccc(S(=O)(=O)N(C)Cc5c6ccccc6cc6ccccc56)cc4)c4nc(c(-c5ccc(S(=O)(=O)N(C)Cc6c7ccccc7cc7ccccc67)cc5)c5ccc2[nH]5)C=C4)C=C3)cc1 | > 100 µM | > 100 µM | –
O=S(=O)(c1ccc(Cl)c(Cl)c1)c1ccc(Cl)c(Cl)c1 | > 200 µM | > 200 µM | –
NC(=O)CCS(=O)(=O)O | > 200 µM | > 200 µM | –
COC(=O)C(=O)/C=C(/O)c1c(C)[nH]c2ccccc12 | > 200 µM | > 200 µM | –
C=CC[C@@]12CC(C=CC13OCCO3)OC(=O)[C@@H]2C | > 200 µM | > 200 µM | –
COC(=O)c1ccc(C)cc1C1CN=NC12Cc1cc(C)c(C)cc1C2=O (stereo not given) | > 200 µM | 22.4 µM | –
COC(=O)NC1(NC(=O)OC)NC(=O)c2ccccc2N1 | > 200 µM | > 200 µM | –
Cc1nn(-c2ccccc2)c2nc(N3CCOCC3)nnc12 | – | – | inactive
O=Cc1ccc2c(c1)CC1(Cc3ccccc3C1)C2 | > 200 µM | 33.9 µM | –
COc1ccc(/C(C)=N/NC(=O)CC(=O)N(C(=O)c2ccccc2)c2ccc(C)cc2)cc1 | > 16.2 µM | > 16.2 µM | –
COc1ccc(C(=O)Sc2ccccc2C(=O)Nc2ccc(S(=O)(=O)NC(C)=O)cc2)cc1 | 22.4 µM | > 100 µM | –
O=c1c(OS(=O)(=O)O)c(-c2ccc(OS(=O)(=O)O)cc2OS(=O)(=O)O)oc2cc(OS(=O)(=O)O)cc(OS(=O)(=O)O)c12 | > 100 µM | > 100 µM | –
Cc1noc(NS(=O)(=O)c2ccc(NC(=S)/N=C/C(C(=O)c3ccccc3)=C(\O)c3ccccc3)cc2)c1C | > 200 µM | 120 µM | –

Compound | EC50 | IC50 | outcome
CN(C)c1nc(N)c(N=O)c(=O)[nH]1 | > 200 µM | 178 µM | –
CCC1Sc2cc(OC)cc([N+](=O)[O-])c2NC1=O (stereo not given) | > 200 µM | > 200 µM | –
OC1(C(Sc2ccccc2)Sc2ccccc2)CCCCCC1 | – | – | inactive
COC1=NS(=O)(=O)C2CCCCCCC2O1 (stereo not given) | > 1000 µM | > 1000 µM | –
O=C1C(NS(=O)(=O)c2ccccc2)=C(n2cnc3ccccc32)C(=O)c2ccccc21 | > 200 µM | 145 µM | –
CCCc1c(C(=O)OCC)[nH]c(-c2ccc(-c3[nH]c(C(=O)OCC)c(CCC)c3C(=O)OCC)s2)c1C(=O)OCC | > 4.68 µM | > 4.68 µM | –
CCOC(=O)NC(Nc1ccc(S(=O)(=O)Nc2ccc(OC)nn2)cc1)(C(F)(F)F)C(F)(F)F | > 200 µM | > 200 µM | –
O=C1c2ccccc2C(=O)c2c1cc(S(=O)(=O)O)c(O)c2O | – | – | inactive
Nc1ccn(C2CCC3(CO)CC23)c(=O)n1 (stereo not given) | > 50.1 µM | > 50.1 µM | –
O=c1c2ncn(C3CCCCO3)c2n(-c2ccccc2)c(=S)n1-c1ccccc1 (stereo not given) | – | – | inactive
CCCCCC(=O)Nc1n[nH]nc1C(N)=O | > 200 µM | > 200 µM | –
COc1cccc(C2NC(=O)N3C(c4cccc(OC)c4)NC(=O)N23)c1 (stereo not given) | > 200 µM | 89.1 µM | –
CC(C)(C)NC(=O)C12C3C4C1C1C2C3C41I (stereo not given) | > 100 µM | > 100 µM | –
Cc1cc(=O)oc2c1ccc1occc(=O)c12 | > 100 µM | 56.2 µM | –
CCOC(=O)c1c(NS(=O)(=O)c2ccc(C)cc2)sc2c1CCCC2 | > 200 µM | 25.1 µM | –
CCOP(=O)(OCC)C1C(=O)OC2(C)CCC1C2(C)C (stereo not given) | – | – | inactive
CC(=O)Oc1ccc(C2SCc3nc4ccccc4n32)cc1 (stereo not given) | > 200 µM | 18.2 µM | –
Cc1nn2c(c1C#N)NNc1c-2sc(=N)nnc1=O | 31.6 µM | 43.7 µM | –
Cc1c2ccccc2c(=O)n2c(-c3ccccn3)cccc12 | > 200 µM | 120 µM | –
NNC(=O)CNC(=O)c1ccc(Cl)cc1Cl | > 27.5 µM | > 27.5 µM | –
Cc1ccc(S(=O)(=O)Nn2c(S)c(C#N)c(-c3ccc([N+](=O)[O-])cc3)c(C#N)c2=O)cc1 | > 200 µM | 30.9 µM | –
CN1CCN(/C(N)=C(\C#N)C(=O)Nc2ccccc2)CC1 | > 200 µM | > 200 µM | –

Compound | EC50 | IC50 | outcome
O=C(NCCO)c1c(CO)n([O-])c2ccccc2[n+]1=O | > 646 µM | 214 µM | –
CC(=O)OCC1OC(n2c(C)c(C)c(C)c(C#N)c2=S)C(OC(C)=O)C(OC(C)=O)C1OC(C)=O (stereo not given) | > 200 µM | > 200 µM | –
COC1(OC)CCN(Cc2ccccc2)C1=O | > 20 µM | 2.69 µM | –
Cc1cc(C)c2c(c1)CC1(Cc3c(C)ccc(C)c3C1=O)C2=O (stereo not given) | > 100 µM | > 100 µM | –
CCCCCCCCCCCCOC(=S)NCCCC | – | – | inactive
Cc1cc(S(=O)(=O)Nc2nc(N)n(-c3ccccc3)n2)c(S)cc1Cl | 129 µM | 468 µM | –
O=C(O)CCCCC1CCSS1 (stereo not given) | 186 µM | > 200 µM | –
C1CCCCc2nc3c(nc2CCC1)c1nc2c(nc1c1nc4c(nc31)CCCCCCCC4)CCCCCCCC2 | – | – | inactive
c1ccc2c(c1)nnn2CN1CCOCC1 | – | – | inactive
NS(=O)(=O)c1ccc(NC(=O)CC(=O)Nc2ccc(S(N)(=O)=O)cc2)cc1 | – | – | inactive
C/C(=N/Nc1ccc([N+](=O)[O-])cc1[N+](=O)[O-])c1ccc(Sc2ccc(/C(C)=N/Nc3ccc([N+](=O)[O-])cc3[N+](=O)[O-])cc2)cc1 | > 50.1 µM | > 50.1 µM | –
O=c1c2c3c(sc2nc2n1N=CN(c1ccc(Cl)cc1)C2)CCCC3 | > 200 µM | 38 µM | –
CCCCN=C(OC1C=CCCC1)SC (stereo not given) | > 200 µM | 155 µM | –
COC(=O)C1C/C(=C/N(C)C)C(=S)N1 (stereo not given) | > 200 µM | > 200 µM | –
Cc1ccccc1OCC(COC(=O)Nc1ccccc1)OC(=O)Nc1ccccc1 (stereo not given) | > 32.4 µM | > 32.4 µM | –
O=C(/C=C/c1ccccc1)c1ccc(NCc2nc3ccccc3[nH]2)cc1 | > 20.4 µM | 11 µM | –
COC(=O)C1=C(C)N2CCSC2(C)C(C(=O)OC)C1c1cccc(Cl)c1 (stereo not given) | > 200 µM | 42.7 µM | –
CCCCCCOC(=O)CC1CC(C(C)=O)C1(C)C (stereo not given) | > 200 µM | > 200 µM | –
CC(=O)c1c(P(=O)(OC(C)C)OC(C)C)nn(-c2ccc([N+](=O)[O-])cc2)c1C | > 166 µM | > 166 µM | –
O=S1c2ccccc2N=C(c2cccs2)CC1c1ccccc1O (stereo not given) | > 10.7 µM | > 10.7 µM | –
O=P(O)(O)C(CSc1ccccc1)P(=O)(O)O | – | – | inactive
COc1cc(C2c3cc4c(cc3OC3(OC)COC(=O)C23)OCO4)cc(OC)c1OC (stereo not given) | > 2 µM | 0.24 µM | –

Compound | EC50 | IC50 | outcome
CN1C(=O)[C@@H]2[C@@H]3c4ccccc4N(S(=O)(=O)C(F)(F)F)[C@@H]3c3[nH]c4ccccc4c3[C@@H]2C1=O | > 200 µM | 9.33 µM | –
O=C(O)CNS(=O)(=O)c1ccc(NC(=O)c2ccccc2[N+](=O)[O-])cc1 | – | – | inactive
CC(C)(C)OC(=O)[C@@H]1CCC(=O)N1C1(c2ccccc2)c2ccccc2-c2ccccc21 | > 200 µM | 141 µM | –
CC1=C(C(=O)NCc2ccccc2)C(c2ccc(N(C)C)cc2)C(C(=O)NCc2ccccc2)=C(C)N1 | > 72.4 µM | > 72.4 µM | –
C=CC(=O)N1C/C(=C\c2ccc(F)cc2)C(=O)/C(=C/c2ccc(F)cc2)C1 | > 0.2 µM | 0.162 µM | –
COC(=O)C1(C(=O)OC)CCCC2=NOC3CCC1C23 (stereo not given) | > 891 µM | 575 µM | –
CC(C)CCC[C@@H](C)C1CCC2[C@@H]3CCC4C[C@@H](NS(C)(=O)=O)CC[C@]4(C)C3CC[C@@]21C (stereo not given in full) | > 200 µM | > 200 µM | –
CCP(=O)(CC)C(Cl)(Cl)C(O)C(C)(C)C (stereo not given) | > 200 µM | > 200 µM | –
COC(=O)c1cccc2cccc(C(=O)N(C)CCN(C)C)c12 | > 708 µM | > 708 µM | –
Cc1sc2nc3n(c(=O)c2c1C)N=CN(c1ccc(F)cc1)C3 | 30.9 µM | > 100 µM | –
CN(C)CCSc1nnc(-c2cccs2)c2ccccc12 | > 794 µM | 40.7 µM | –
COC(=O)c1cc(C(=CCCN=[N+]=[N-])c2cc(Br)c(OC)c(C(=O)OC)c2)cc(Br)c1OC | 3.24 µM | 93.3 µM | –
Cc1cc(=O)[nH]c2[nH][nH]c(=O)c12 | – | – | inactive
CC(C1=C(CCN(C)C)Cc2ccccc21)c1ccccn1 (stereo not given) | > 200 µM | 155 µM | –
O=S1(=O)OCCOS(=O)(=O)C1Br | > 891 µM | 331 µM | –
O=S(=O)(c1ccccc1)C1CN2OC1(S(=O)(=O)c1ccccc1)CC21CCCCC1 (stereo not given) | – | – | inactive
CN1CN(c2ccccc2)C2(CCN(CCCN(C)c3ccc(F)cc3)CC2)C1=O | > 200 µM | 35.5 µM | –
NC(Cc1ccc2nc3c4ccccc4c(=O)cc-3oc2c1)C(=O)O (stereo not given) | > 200 µM | 34.7 µM | –
O=C(NCCCCCCCN1CCCCCC1)C1c2ccccc2-c2ccccc21 | > 200 µM | 39.8 µM | –
COC(=O)[C@]12CSC[C@H]1C[C@H](c1cccc3ccccc13)N2 | > 200 µM | > 200 µM | –
S=C(N/N=C(/c1ccccc1)c1ccccn1)N1CCCCCC1 | > 0.2 µM | 0.115 µM | –
